Laboratory results reported in PubChem BioAssay AID330 (DTP/NCI, 2004).
Inconclusive results and toxic doses are left out.

Tested on: P388 leukemia ip, CD2F1 mice, survival T/C
Assay: NCI In Vivo Anticancer Drug Screen. Data for tumor model P388 Leukemia (intraperitoneal) in CD2F1 (CDF1) mice
Conditions: endpoint: median survival time, higher = longer survival
In short: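 Mice carrying the transplanted tumor received test compound or vehicle. Survival was recorded in each group, and the value is the treated-group measurement divided by that of the vehicle-treated control group.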

[1] = dose: 100.0 mg/kg/injection, schedule: Q04DX003 (ip), vehicle: Klucel (hydroxypropylcellulose) (HPC)
[2] = dose: 200.0 mg/kg/injection, schedule: Q04DX003 (ip), vehicle: Klucel (hydroxypropylcellulose) (HPC)
[3] = dose: 50.0 mg/kg/injection, schedule: Q01DX009 (ip), vehicle: Klucel (hydroxypropylcellulose) (HPC)
[4] = dose: 100.0 mg/kg/injection, schedule: Q01DX009 (ip), vehicle: Klucel (hydroxypropylcellulose) (HPC)
[5] = dose: 200.0 mg/kg/injection, schedule: Q01DX009 (ip), vehicle: Klucel (hydroxypropylcellulose) (HPC)
[6] = dose: 100.0 mg/kg/injection, schedule: Q01DX009 (ip), vehicle: saline with Tween-80
[7] = dose: 3.13 mg/kg/injection, schedule: Q01DX009 (ip), vehicle: saline with Tween-80
[8] = dose: 6.25 mg/kg/injection, schedule: Q01DX009 (ip), vehicle: saline with Tween-80
[9] = dose: 12.5 mg/kg/injection, schedule: Q01DX009 (ip), vehicle: saline with Tween-80

Q: For `Cc1cc(NCCN(C(C)C)C(C)C)nc(Nc2nc3cc(Cl)c(Cl)cc3[nH]2)n1`, which T/C (dose: 6.25 mg/kg/injection, schedule: Q01DX009 (ip), vehicle: saline sonified) is on record?
A: 100 % of control

Q: What about the T/C (dose: 12.5 mg/kg/injection, schedule: Q01DX009 (ip), vehicle: saline sonified) of the same compound?
A: 100 % of control

Q: Which results are given for `CCOCCC(=O)NCC(=O)NC1C(CO)OC(Nc2ncnc3nc[nH]c23)C(O)C1O` (stereo not given)?
A: T/C (dose: 3.12 mg/kg/injection, schedule: Q01DX009 (ip), vehicle: water): 98 % of control; T/C (dose: 6.25 mg/kg/injection, schedule: Q01DX009 (ip), vehicle: water): 88 % of control; T/C (dose: 12.5 mg/kg/injection, schedule: Q01DX009 (ip), vehicle: water): 98 % of control; T/C (dose: 25.0 mg/kg/injection, schedule: Q01DX009 (ip), vehicle: water): 106 % of control; T/C (dose: 50.0 mg/kg/injection, schedule: Q01DX009 (ip), vehicle: water): 101 % of control

Q: For `CCn1cnc(=O)[nH]c1=O`, which T/C (dose: 50.0 mg/kg/injection, schedule: Q01DX005 (ip), vehicle: Klucel (hydroxypropylcellulose) (HPC)) is on record?
A: 102 % of control

Q: What about the T/C (dose: 100.0 mg/kg/injection, schedule: Q01DX005 (ip), vehicle: Klucel (hydroxypropylcellulose) (HPC)) of the same compound?
A: 96 % of control

Q: And the T/C (dose: 200.0 mg/kg/injection, schedule: Q01DX005 (ip), vehicle: Klucel (hydroxypropylcellulose) (HPC))?
A: 97 % of control

Q: What does the source list for `CCOC(=O)c1cc(Cl)nc2ccc3ccccc3c12`?
A: T/C (dose: 50.0 mg/kg/injection, schedule: Q01DX005 (ip), vehicle: saline with Tween-80): 95 % of control; T/C (dose: 100.0 mg/kg/injection, schedule: Q01DX005 (ip), vehicle: saline with Tween-80): 98 % of control; T/C (dose: 200.0 mg/kg/injection, schedule: Q01DX005 (ip), vehicle: saline with Tween-80): 100 % of control

Q: Which results are given for `Cc1cccc(Nc2cc(=O)[nH]c(=O)[nH]2)c1`?
A: T/C [1]: 110 % of control; T/C [2]: 98 % of control

Q: `CCCCCCCC(=O)C(=O)c1ccc(O)cc1O` was tested. Which T/C [3] did it give?
A: 109 % of control

Q: And the T/C [4]?
A: 112 % of control

Q: And the T/C [5]?
A: 113 % of control

Q: With `CCS/C(C#N)=C/c1ccccc1` as the compound, how does the T/C (dose: 50.0 mg/kg/injection, schedule: Q01DX009 (ip), vehicle: saline with Tween-80) read?
A: 109 % of control

Q: And the T/C [6]?
A: 115 % of control

Q: How did the T/C (dose: 25.0 mg/kg/injection, schedule: Q01DX009 (ip), vehicle: saline) turn out when `C1CC(CCC2CCNCC2)CCN1` was run?
A: 96 % of control

Q: What about the T/C (dose: 50.0 mg/kg/injection, schedule: Q01DX009 (ip), vehicle: saline) of the same compound?
A: 97 % of control

Q: `CC1(Cc2ccccc2)N=C1c1ccccc1` (stereo not given) was tested. Which T/C (dose: 100.0 mg/kg/injection, schedule: Q04DX002 (ip), vehicle: saline with Tween-80) did it give?
A: 106 % of control

Q: And the T/C (dose: 200.0 mg/kg/injection, schedule: Q04DX002 (ip), vehicle: saline with Tween-80)?
A: 103 % of control

Q: What does the source list for `CC1CCC2(OC1)OC1CC3C4CC=C5CC(OC6OC(CO)C(OC7OC(C)C(OC8OC(C)C(O)C(O)C8O)C(O)C7O)C(O)C6OC6OC(C)C(O)C(O)C6O)CCC5(C)C4CCC3(C)C1C2C` (stereo not given)?
A: T/C (dose: 0.62 mg/kg/injection, schedule: Q01DX009 (ip), vehicle: saline): 106 % of control; T/C (dose: 1.25 mg/kg/injection, schedule: Q01DX009 (ip), vehicle: saline): 91 % of control; T/C (dose: 2.5 mg/kg/injection, schedule: Q01DX009 (ip), vehicle: saline): 90 % of control

Q: How did the T/C [3] turn out when `O=C1C=CC(=C2SCCS2)C(O)=C1` was run?
A: 100 % of control

Q: And the T/C [4]?
A: 93 % of control

Q: What about the T/C [5] of the same compound?
A: 97 % of control

Q: For `CC1(C)COC(c2ccc(C(C)(C)C)cc2)=N1`, which T/C [7] is on record?
A: 105 % of control

Q: What about the T/C [8] of the same compound?
A: 105 % of control

Q: And the T/C [9]?
A: 98 % of control

Q: What does the source list for `CC1CN1c1nc(N2CC2C)nc(N2CC2C)n1` (stereo not given)?
A: T/C (dose: 1.56 mg/kg/injection, schedule: Q01DX009 (ip), vehicle: saline with Tween-80): 94 % of control; T/C [7]: 98 % of control

Q: Which results are given for `COc1ccc(CN2COc3c(cc(Cl)c4cccnc34)C2)cc1`?
A: T/C [1]: 96 % of control; T/C [2]: 104 % of control; T/C (dose: 400.0 mg/kg/injection, schedule: Q04DX003 (ip), vehicle: Klucel (hydroxypropylcellulose) (HPC)): 95 % of control

Q: With `C=CC(=O)NCCSSCCNC(=O)C=C` as the compound, how does the T/C [8] read?
A: 108 % of control

Q: What about the T/C [9] of the same compound?
A: 99 % of control

Q: What about the T/C (dose: 25.0 mg/kg/injection, schedule: Q01DX009 (ip), vehicle: saline with Tween-80) of the same compound?
A: 93 % of control

Q: And the T/C [6]?
A: 98 % of control

Q: Which T/C (dose: 60.0 mg/kg/injection, schedule: Q01DX005 (ip), vehicle: saline with Tween-80) does the source give for `CSCCOCc1cc(C)no1` here?
A: 100 % of control

Q: What about the T/C (dose: 120.0 mg/kg/injection, schedule: Q01DX005 (ip), vehicle: saline with Tween-80) of the same compound?
A: 100 % of control

Q: And the T/C (dose: 240.0 mg/kg/injection, schedule: Q01DX005 (ip), vehicle: saline with Tween-80)?
A: 100 % of control
